Measured values reported in ChEMBL document CHEMBL1133805, “Discovery and initial structure-activity relationships of trisubstituted ureas as thrombin receptor (PAR-1) antagonists” (Bioorg Med Chem Lett, 2001).
Where a SMILES comes first, the peptide text is derived from it. [ ]: non-standard residue; d: D form. The star is where a group is joined. Phe(4-guanidino) = N=C(N)Nc1ccc(C[C@H](N)C(=O)O)cc1; Phe(4-F) = N[C@@H](Cc1ccc(F)cc1)C(=O)O; Orn = NCCC[C@H](N)C(=O)O; X1 = O=C(/C=C/c1ccccc1)*; Propionyl = CCC(=O)*

Tested on: not listed separately
Test: Inhibitory activity against ADP or collagen induced platelet activation
Format: functional

IC50 [µM]	Structure (SMILES)
> 10	CC[C@@H](C)N(C[C@@H](O)c1ccc(Cl)c(Cl)c1)C(=O)Nc1ccc(CNC(=O)C(C)(C)C)cc1

Organism: Homo sapiens
Test: Inhibitory concentration against TRAP-stimulated secretion of 3H serotonin from human platelets
Format: functional

IC50 [µM]	Structure (SMILES)
1	CC(C)N(C[C@@H](O)c1ccc(Cl)c(Cl)c1)C(=O)Nc1ccc(NC(=O)c2cccc3[nH]cnc23)cc1
0.36	CC(C)N(C[C@@H](O)c1ccc(Cl)c(Cl)c1)C(=O)Nc1ccc(CCNC(=O)c2cccc3[nH]cnc23)cc1
0.054	CC(C)C[C@H](NC(=O)[C@H](Cc1ccc(NC(=N)N)cc1)NC(=O)[C@H](Cc1ccc(F)cc1)NC(=O)/C=C/c1ccccc1)C(=O)N[C@@H](CCCN=C(N)N)C(=O)N[C@@H](CCCN)C(N)=O (X1-[Phe(4-F)][Phe(4-guanidino)]LR[Orn]-NH2)
0.7	CC[C@H]1CC[C@@H]([C@@H](O)c2ccc(Cl)c(Cl)c2)N1C(=O)Nc1ccc(CNC(=O)C(C)(C)C)cc1
1	CC(C)N(C[C@@H](O)c1ccc(Cl)c(Cl)c1)C(=O)Nc1ccc(CNC(=O)C(C)(C)N)cc1
> 100	O=C1N(C[C@@H](O)c2ccc(Cl)c(Cl)c2)CCN1c1ccccc1
3.8	CCN(C[C@@H](O)c1ccc(Cl)c(Cl)c1)C(=O)Nc1ccc(CNC(=O)C(C)(C)C)cc1
> 10	CC(C)(C)C(=O)NCc1ccc(NC(=O)N2CCC[C@@H]2[C@H](O)c2ccc(Cl)c(Cl)c2)cc1
0.7	CC(C)N(C[C@@H](O)c1ccc(Cl)c(Cl)c1)C(=O)Nc1ccc(CNC(=O)C(C)(C)C)cc1
> 10	CC(C)N(C[C@@H](O)c1ccc(Cl)c(Cl)c1)C(=O)Nc1ccc(CCNC(=O)C(C)(C)C)cc1
> 10	Cc1ccc(C(O)CN(C(=O)Nc2ccc(CNC(=O)C(C)(C)C)cc2)C2CCC2)cc1C (stereo not given)
0.23	CC(C)(C)C(=O)NCc1ccc(NC(=O)N(CC(O)c2ccc(Cl)c(Cl)c2)C2CCC2)cc1 (stereo not given)
1.4	CC(C)N(C[C@@H](O)c1ccc(Cl)c(Cl)c1)C(=O)Nc1ccc(CCNC(=O)c2cccnc2)cc1
1	CC(C)N(C[C@@H](O)c1ccc(Cl)c(Cl)c1)C(=O)Nc1ccc(NC(=O)c2ccc(S(N)(=O)=O)cc2)cc1
0.7	CC(C)N(C[C@@H](O)c1ccc(Cl)c(Cl)c1)C(=O)Nc1ccc(CCNC(=O)c2ccc(S(N)(=O)=O)cc2)cc1
> 10	CCCCN(C[C@@H](O)c1ccc(Cl)c(Cl)c1)C(=O)Nc1ccc(CNC(=O)C(C)(C)C)cc1
10	CC(C)(C)C(=O)NCc1ccc(NC(=O)N(CC(O)c2ccc(Cl)cc2Cl)C2CCC2)cc1 (stereo not given)
> 40	CC(C)(C)C(=O)NCc1ccc(NC(=O)N2CCOC(c3ccc(Cl)c(Cl)c3)C2)cc1 (stereo not given)
> 10	CC(C)N1CC(c2ccc(Cl)c(Cl)c2)CN(c2ccc(CNC(=O)C(C)(C)C)cc2)C1=O (stereo not given)

IC50 [µM]	Structure (SMILES)
0.6	CC(C)N(C[C@@H](O)c1ccc(Cl)c(Cl)c1)C(=O)Nc1ccc(CNC(=O)Nc2ccc(CNC(N)=O)cc2)cc1
> 40	CC(C)(C)C(=O)NCc1ccc(NC(=O)NC[C@@H](O)c2ccc(Cl)c(Cl)c2)cc1
10	CC(C)(C)C(=O)NCc1ccc(NC(=O)N(CC(O)c2ccc(F)c(F)c2)C2CCC2)cc1 (stereo not given)
0.7	CC(C)N(C[C@@H](O)c1ccc(Cl)c(Cl)c1)C(=O)Nc1ccc(CNC(=O)c2cccnc2)cc1
1	CC(C)(C)C(=O)NCc1ccc(NC(=O)N(CC(O)c2ccc(Br)c(Br)c2)C2CCC2)cc1 (stereo not given)
> 10	C[C@@H]1CC[C@@H]([C@@H](O)c2ccc(Cl)c(Cl)c2)N1C(=O)Nc1ccc(CNC(=O)C(C)(C)C)cc1
> 10	CC(C)(C)C(=O)NCc1ccc(NC(=O)N2C[S+]([O-])C[C@@H]2[C@@H](O)c2ccc(Cl)c(Cl)c2)cc1 (stereo not given in full)
0.85	CC(C)N(C[C@@H](O)c1ccc(Cl)c(Cl)c1)C(=O)Nc1ccc(CNC(=O)c2ccc(S(N)(=O)=O)cc2)cc1
1	CCCC(C)N(C[C@@H](O)c1ccc(Cl)c(Cl)c1)C(=O)Nc1ccc(CNC(=O)C(C)(C)C)cc1 (stereo not given in full)
6.7	CC(C)(C)C(=O)NCc1ccc(NC(=O)N(C[C@@H](O)c2ccc(Cl)c(Cl)c2)C2CC2)cc1
0.23	CC[C@@H](C)N(C[C@@H](O)c1ccc(Cl)c(Cl)c1)C(=O)Nc1ccc(CNC(=O)C(C)(C)C)cc1
> 10	CC(C)(C)C(=O)NCc1ccc(NC(=O)N(C[C@@H](O)c2ccc(Cl)c(Cl)c2)C2CCCC2)cc1
> 10	CC(C)(C)C(=O)NCc1ccc(NC(=O)N2CCC[C@H]2[C@H](O)c2ccc(Cl)c(Cl)c2)cc1
> 10	CC(C)CN(C[C@@H](O)c1ccc(Cl)c(Cl)c1)C(=O)Nc1ccc(CNC(=O)C(C)(C)C)cc1
> 10	CC(C)(C)C(=O)NCc1ccc(NC(=O)N(CC(O)c2cccc(C#N)c2)C2CCC2)cc1 (stereo not given)
0.4	C[C@H]1CC[C@@H]([C@@H](O)c2ccc(Cl)c(Cl)c2)N1C(=O)Nc1ccc(CNC(=O)C(C)(C)C)cc1
0.12	CCC(=O)NCCC[C@H](NC(=O)[C@H](CCCN=C(N)N)NC(=O)[C@H](CC(C)C)NC(=O)[C@H](Cc1ccc(NC(=N)N)cc1)NC(=O)[C@H](Cc1ccc(F)cc1)NC(=O)/C=C/c1ccccc1)C(N)=O (X1-[Phe(4-F)][Phe(4-guanidino)]LR[Orn](Propionyl)-NH2)
> 10	CC(C)(C)C(=O)NCc1ccc(NC(=O)N(C[C@@H](O)c2ccc(Cl)c(Cl)c2)c2ccccc2)cc1
1.1	CCCN(C[C@@H](O)c1ccc(Cl)c(Cl)c1)C(=O)Nc1ccc(CNC(=O)C(C)(C)C)cc1

IC50 [µM]	Structure (SMILES)
0.45	CC(C)N(C[C@@H](O)c1ccc(Cl)c(Cl)c1)C(=O)Nc1ccc(CNC(=O)c2cccc3[nH]cnc23)cc1
> 10	CC(C)N(C[C@@H](O)c1ccc(Cl)c(Cl)c1)C(=O)Nc1ccc(NC(=O)C(C)(C)C)cc1
4.3	CC(C)(C)C(=O)NCc1ccc(NC(=O)N2CCCC[C@H]2[C@@H](O)c2ccc(Cl)c(Cl)c2)cc1
1.5	CC(C)(C)C(=O)NCc1ccc(NC(=O)N2CCC[C@H]2[C@@H](O)c2ccc(Cl)c(Cl)c2)cc1
> 10	CC(C)(C)C(=O)NCc1ccc(NC(=O)N(CC(O)c2cccc(Cl)c2Cl)C2CCC2)cc1 (stereo not given)
> 10	CC(C)(C)C(=O)NCc1ccc(NC(=O)N(CC(O)c2cc(Cl)cc(Cl)c2)C2CCC2)cc1 (stereo not given)
0.4	CC[C@H](C)N(C[C@@H](O)c1ccc(Cl)c(Cl)c1)C(=O)Nc1ccc(CNC(=O)C(C)(C)C)cc1
> 10	CC(C)N(C[C@@H](O)c1ccc(Cl)c(Cl)c1)C(=O)Nc1ccc(CCNC(=O)c2ccc(F)cc2F)cc1
0.5	CC(C)(C)C(=O)NCc1ccc(NC(=O)N2CCCC(O)(c3ccc(Cl)c(Cl)c3)C2)cc1 (stereo not given)
> 10	CC(C)(C)C(=O)NCc1ccc(NC(=O)N2CCC[C@@H]2[C@@H](O)c2ccc(Cl)c(Cl)c2)cc1
0.9	CC(C)N(C[C@@H](O)c1ccc(Cl)c(Cl)c1)C(=O)Nc1ccc(CNC(=O)c2ccc(F)cc2F)cc1
40	CN(C[C@@H](O)c1ccc(Cl)c(Cl)c1)C(=O)Nc1ccc(CNC(=O)C(C)(C)C)cc1
2.5	CC(C)(C)C(=O)NCc1ccc(NC(=O)N2CSC[C@@H]2[C@@H](O)c2ccc(Cl)c(Cl)c2)cc1
6	CC(C)(C)C(=O)NCc1ccc(NC(=O)N(CC(O)c2ccc(C#N)cc2)C2CCC2)cc1 (stereo not given)
1.7	CC(C)(C)C(=O)NCc1ccc(NC(=O)N(C[C@@H](O)c2ccc(Cl)c(Cl)c2)C(C)(C)C)cc1
> 10	CC(C)N(C[C@@H](O)c1ccc(Cl)c(Cl)c1)C(=O)Nc1ccc(NC(=O)c2ccc(F)cc2F)cc1
> 10	CC(C)(C)C(=O)NCc1ccc(NC(=O)N2CCCC[C@H]2[C@H](O)c2ccc(Cl)c(Cl)c2)cc1
> 40	CC(C)(C)C(=O)NCc1ccc(NC(=O)N2CCC(O)(c3ccc(Cl)c(Cl)c3)C2)cc1 (stereo not given)

Target: not listed separately
Test: Inhibitory activity against thrombin's catalytic activity was determined
Format: functional

Ki [µM]	Structure (SMILES)
> 10	CC[C@@H](C)N(C[C@@H](O)c1ccc(Cl)c(Cl)c1)C(=O)Nc1ccc(CNC(=O)C(C)(C)C)cc1

Target: T1, Proteinase-activated receptor 1 (Homo sapiens, UniProt P25116)
T1 sequence (P25116 whole entry): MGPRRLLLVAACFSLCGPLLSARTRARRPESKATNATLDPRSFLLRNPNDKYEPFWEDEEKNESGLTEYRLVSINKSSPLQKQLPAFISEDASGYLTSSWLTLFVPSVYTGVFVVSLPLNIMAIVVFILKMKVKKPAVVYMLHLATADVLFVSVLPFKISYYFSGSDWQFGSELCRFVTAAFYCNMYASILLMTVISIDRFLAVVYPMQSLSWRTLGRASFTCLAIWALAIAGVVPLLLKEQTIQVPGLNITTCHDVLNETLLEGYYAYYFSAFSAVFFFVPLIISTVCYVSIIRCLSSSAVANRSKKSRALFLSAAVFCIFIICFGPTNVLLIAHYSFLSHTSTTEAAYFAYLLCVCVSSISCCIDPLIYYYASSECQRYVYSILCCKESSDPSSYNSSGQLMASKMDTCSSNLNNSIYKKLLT
Test: Binding affinity against platelet thrombin receptor

IC50 [µM]	Structure (SMILES)
0.7	CC(C)N(C[C@@H](O)c1ccc(Cl)c(Cl)c1)C(=O)Nc1ccc(CNC(=O)C(C)(C)C)cc1
1.2	CC(C)N(C[C@@H](O)c1ccc(Cl)c(Cl)c1)C(=O)Nc1ccc(CNC(=O)c2ccc(S(N)(=O)=O)cc2)cc1
2.1	CC(C)(C)C(=O)NCc1ccc(NC(=O)N(C[C@@H](O)c2ccc(Cl)c(Cl)c2)C2CC2)cc1
0.12	CC[C@@H](C)N(C[C@@H](O)c1ccc(Cl)c(Cl)c1)C(=O)Nc1ccc(CNC(=O)C(C)(C)C)cc1
1	C[C@H]1CC[C@@H]([C@@H](O)c2ccc(Cl)c(Cl)c2)N1C(=O)Nc1ccc(CNC(=O)C(C)(C)C)cc1
1.1	CC(C)(C)C(=O)NCc1ccc(NC(=O)N2CCC[C@H]2[C@@H](O)c2ccc(Cl)c(Cl)c2)cc1
6.6	CN(C[C@@H](O)c1ccc(Cl)c(Cl)c1)C(=O)Nc1ccc(CNC(=O)C(C)(C)C)cc1
